Assay: xn = mol fraction of the nth substance listed
Details: 101 kPa, Liquid; for viscosity: Capillary tube (Ostwald / Ubbelohde) method; for speed of sound: Pulse-echo method; for mass density: Pycnometric method

COc1ccc(C=O)cc1 [4-methoxybenzaldehyde] + Cc1cccc(O)c1
Details | mass density [kg/m3] | speed of sound [m/s] | viscosity [mPa·s]
303.15 K, x1 = 0.0883 | 1031.6 | 1487.6 | 8.513
303.15 K, x1 = 0.1789 | 1037.8 | 1507.8 | 8.028
303.15 K, x1 = 0.2719 | 1044 | 1528.6 | 7.569
303.15 K, x1 = 0.3674 | 1052.6 | 1550.3 | 7.051
303.15 K, x1 = 0.4656 | 1060.7 | 1572.5 | 6.528
303.15 K, x1 = 0.5665 | 1068 | 1595.6 | 5.969
303.15 K, x1 = 0.6703 | 1076.4 | 1619.1 | 5.331
303.15 K, x1 = 0.777 | 1088 | 1643.4 | 4.593
303.15 K, x1 = 0.8869 | 1104.5 | 1668.4 | 3.93
303.15 K, x1 = 1 | 1125.2 | 1694.3 | 3.251
308.15 K, x1 = 0.0883 | 1026.7 | 1471.4 | 7.108
308.15 K, x1 = 0.1789 | 1032.4 | 1490.9 | 6.747
308.15 K, x1 = 0.2719 | 1038 | 1511 | 6.421
308.15 K, x1 = 0.3674 | 1045.4 | 1532.1 | 6.046
308.15 K, x1 = 0.4656 | 1052.3 | 1553.4 | 5.659
308.15 K, x1 = 0.5665 | 1060 | 1575.6 | 5.237
308.15 K, x1 = 0.6703 | 1066.1 | 1598.2 | 4.741
308.15 K, x1 = 0.777 | 1077.2 | 1621.6 | 4.151
308.15 K, x1 = 0.8869 | 1092.6 | 1645.7 | 3.648
308.15 K, x1 = 1 | 1111.6 | 1670.7 | 3.131
313.15 K, x1 = 0.0883 | 1022.8 | 1455.7 | 5.894
313.15 K, x1 = 0.1789 | 1028.4 | 1473.1 | 5.629
313.15 K, x1 = 0.2719 | 1034.8 | 1490.7 | 5.393
313.15 K, x1 = 0.3674 | 1042.8 | 1509.2 | 5.13
313.15 K, x1 = 0.4656 | 1049.1 | 1528.1 | 4.858
313.15 K, x1 = 0.5665 | 1056.8 | 1547.6 | 4.555
313.15 K, x1 = 0.6703 | 1064.4 | 1567.4 | 4.181
313.15 K, x1 = 0.777 | 1075.1 | 1588.1 | 3.724
313.15 K, x1 = 0.8869 | 1090.9 | 1609.3 | 3.34
313.15 K, x1 = 1 | 1109.5 | 1631.3 | 2.961
318.15 K, x1 = 0.0883 | 1019.2 | 1437.7 | 4.849
318.15 K, x1 = 0.1789 | 1026.5 | 1449.6 | 4.655
318.15 K, x1 = 0.2719 | 1033.4 | 1461.5 | 4.47
318.15 K, x1 = 0.3674 | 1041.6 | 1474.1 | 4.272
318.15 K, x1 = 0.4656 | 1048.2 | 1487 | 4.085
318.15 K, x1 = 0.5665 | 1055.2 | 1500.1 | 3.868
318.15 K, x1 = 0.6703 | 1062.5 | 1513.5 | 3.586
318.15 K, x1 = 0.777 | 1073.3 | 1527.5 | 3.236
318.15 K, x1 = 0.8869 | 1088.4 | 1542 | 2.949
318.15 K, x1 = 1 | 1104.7 | 1557 | 2.682

COc1ccc(C=O)cc1 [4-methoxybenzaldehyde] + Cc1ccccc1O
Details | mass density [kg/m3] | speed of sound [m/s] | viscosity [mPa·s]
303.15 K, x1 = 0.0875 | 1039.2 | 1507.7 | 7.163
303.15 K, x1 = 0.1774 | 1044.2 | 1526.3 | 6.824
303.15 K, x1 = 0.2699 | 1050.1 | 1545.5 | 6.519
303.15 K, x1 = 0.3651 | 1058.5 | 1565 | 6.202
303.15 K, x1 = 0.4631 | 1067.1 | 1585.2 | 5.778
303.15 K, x1 = 0.564 | 1074.3 | 1611.2 | 5.319
303.15 K, x1 = 0.668 | 1081.3 | 1637 | 4.811
303.15 K, x1 = 0.7753 | 1093.2 | 1658.9 | 4.261
303.15 K, x1 = 0.8859 | 1106.6 | 1681.5 | 3.758
303.15 K, x1 = 1 | 1125.2 | 1694.3 | 3.251
308.15 K, x1 = 0.0875 | 1033.8 | 1488.3 | 5.762
308.15 K, x1 = 0.1774 | 1038.2 | 1506.2 | 5.54
308.15 K, x1 = 0.2699 | 1043.4 | 1524.9 | 5.361
308.15 K, x1 = 0.3651 | 1050.6 | 1544.2 | 5.168
308.15 K, x1 = 0.4631 | 1058.4 | 1564 | 4.874
308.15 K, x1 = 0.564 | 1065 | 1589.4 | 4.56
308.15 K, x1 = 0.668 | 1071.5 | 1613.8 | 4.196
308.15 K, x1 = 0.7753 | 1082.8 | 1635.2 | 3.815
308.15 K, x1 = 0.8859 | 1095.3 | 1657.2 | 3.475
308.15 K, x1 = 1 | 1111.6 | 1670.7 | 3.131
313.15 K, x1 = 0.0875 | 1030.2 | 1470.7 | 4.162
313.15 K, x1 = 0.1774 | 1034.7 | 1486.3 | 4.072
313.15 K, x1 = 0.2699 | 1040.9 | 1502.6 | 4.007
313.15 K, x1 = 0.3651 | 1047.3 | 1519.6 | 3.936
313.15 K, x1 = 0.4631 | 1055.4 | 1536.9 | 3.806
313.15 K, x1 = 0.564 | 1062.1 | 1560.3 | 3.673
313.15 K, x1 = 0.668 | 1070 | 1580 | 3.494
313.15 K, x1 = 0.7753 | 1082.1 | 1598.1 | 3.291
313.15 K, x1 = 0.8859 | 1094.9 | 1617.6 | 3.126
313.15 K, x1 = 1 | 1109.5 | 1631.3 | 2.961
318.15 K, x1 = 0.0875 | 1026.3 | 1449.6 | 2.269
318.15 K, x1 = 0.1774 | 1031.9 | 1460.1 | 2.313
318.15 K, x1 = 0.2699 | 1038.3 | 1470.9 | 2.363
318.15 K, x1 = 0.3651 | 1044.3 | 1482.2 | 2.414
318.15 K, x1 = 0.4631 | 1052.8 | 1493.9 | 2.451
318.15 K, x1 = 0.564 | 1059.5 | 1511.3 | 2.496
318.15 K, x1 = 0.668 | 1067.7 | 1524.3 | 2.543
318.15 K, x1 = 0.7753 | 1078.8 | 1536.6 | 2.589
318.15 K, x1 = 0.8859 | 1090.1 | 1549.5 | 2.631
318.15 K, x1 = 1 | 1104.7 | 1557 | 2.682

Cc1ccc(O)cc1 [4-methylphenol] + COc1ccc(C=O)cc1
x2 = 0
Details | mass density [kg/m3] | speed of sound [m/s] | viscosity [mPa·s]
303.15 K | 1026.5 | 1468.4 | 9.54
308.15 K | 1022 | 1455.8 | 8.119
313.15 K | 1018.1 | 1443.7 | 6.741
318.15 K | 1013.9 | 1432.7 | 5.469
